Results taken from PMC3285636, “Identification by Virtual Screening and In Vitro Testing of Human DOPA Decarboxylase Inhibitors” (PLoS ONE, 2012).
Entries after “also recorded” stand apart in the source; their conditions may differ. Read-outs that look alike come from different tables or passages of the source. Marks after values point to notes of the source that are not given here.

Experiments:
human DDC [1] = molecular target: T1, human DDC (Homo sapiens, UniProt P20711); test: Assay of the inhibitory activity: spectrophotometric measurement of dopamine production by DDC; format: biochemical; conditions: for Ki′: mixed or noncompetitive inhibition; for Inhibition profile: type of inhibition from Lineweaver–Burk plots; for IC50: 0.1 mM L-Dopa, pH 7.4, 25°C, 9 concentrations in duplicate; for BE (binding efficiency): binding energy per unit of mass, from Ki and molecular weight in kDa
T1 construct: made in house
T1 sequence (P20711 1-480): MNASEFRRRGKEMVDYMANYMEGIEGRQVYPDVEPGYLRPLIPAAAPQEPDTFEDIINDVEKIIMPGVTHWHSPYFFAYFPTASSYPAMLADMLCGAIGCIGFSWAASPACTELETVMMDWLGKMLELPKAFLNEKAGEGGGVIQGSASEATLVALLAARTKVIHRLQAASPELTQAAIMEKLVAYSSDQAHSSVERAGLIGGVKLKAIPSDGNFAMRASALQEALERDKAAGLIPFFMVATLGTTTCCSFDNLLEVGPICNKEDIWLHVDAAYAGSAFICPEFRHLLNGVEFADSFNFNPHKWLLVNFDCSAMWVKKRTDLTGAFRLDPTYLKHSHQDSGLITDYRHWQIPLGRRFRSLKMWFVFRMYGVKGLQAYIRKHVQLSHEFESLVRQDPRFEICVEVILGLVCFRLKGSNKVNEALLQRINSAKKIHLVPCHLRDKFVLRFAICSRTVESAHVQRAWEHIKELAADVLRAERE
Procedure: DDC activity was determined by measuring the production of dopamine with a spectrophotometric assay outlined by Sherald et al. and modified by Charteris and John. The reaction was carried out in 0.1 M potassium phosphate buffer pH 7.4 at 25°C for 1 min and stopped by inactivation of the enzyme at 100°C for 90 sec. The inhibitory assay was performed by measuring the decarboxylase activity of DDC with 50 nM enzyme, 0.1 mM L-Dopa, and 10 µM PLP in the presence and in the absence of a fixed amount of each compound. Various amounts of dimethyl sulphoxyde (DMSO) were necessary to solubilize the compounds in 100 mM potassium phosphate buffer, pH 7.4. […] Compounds were evaluated at 9 concentrations, and each in duplicate. IC50 values were derived by nolinear regression analysis. The related inhibition type of the compounds on human DDC was identified from Lineweaver–Burk plots, and Ki and/or Ki′ values for the inhibitors tested were calculated by the software Origin 7.0.

human DDC [2] = molecular target: T1, human DDC; test: Enzyme-ligand equilibrium dissociation constant from visible CD signal changes of DDC; format: binding; conditions: change of 420 nm or 335 nm CD band, 100 mM potassium phosphate pH 7.4
Procedure: The equilibrium dissociation constant for each tested compound from DDC was determined by monitoring the decrease in the 420 nm CD signal of DDC (7 µM) in the presence of various ligand concentrations in 100 mM potassium phosphate buffer, pH 7.4. In any case, the maximun DMSO concentration in the mixture was kept lower than 1% (v/v). The KD values were obtained from the fitting of the data to the equation [drawing 3] where [E]t and [L]t represent the total concentrations of DDC dimer and ligand, respectively, Y refers to the visible CD signal change at 420 nm at the ligand concentration [L], and Ymax refers to the CD signal when all enzyme molecules are complexed with the ligand. CD measurements were performed with a Jasco J-710 spectropolarimeter using quartz cuvettes with 1 cm path length.

[3] = 50 nM enzyme, L-Dopa, 10 µM PLP, 0.1 M potassium phosphate pH 7.4, 25°C, from Lineweaver–Burk plots, read-out: Ki
[4] = 0.1 M potassium phosphate pH 7.4, 25°C, from Lineweaver–Burk plots
[5] = 50 nM enzyme, 10 µM PLP, read-out: IC50
[6] = Ki, competitive inhibition, Table 4, third screening
[7] = at a concentration in which solubility of the compound was maximum
[8] = competitive inhibition, Table 4, third screening, read-out: Ki

Ki (human DDC [1]; [3]) | Inhibition profile (human DDC [1]) | Kd (human DDC [2]) | IC50 (human DDC [1]; [5]) | BE (binding efficiency) (human DDC [1]) | Compound | further results
4.5 ± 0.3 µM | mixed mode |  |  |  | Oc1c(Br)cc(Br)cc1/C=N/n1c(S)nnc1-c1ccc(Cl)cc1Cl [Compound 32] | Ki′ (human DDC [1]; [4]): 17 ± 0.2 µM
44.4 ± 2.3 µM | mixed mode |  |  |  | Oc1ccccc1/C=N/n1c(S)nnc1-c1ccccc1Cl [Compound 29] | Ki′ (human DDC [1]; [4]): 208 ± 3 µM
33.4 ± 5 µM | competitive inhibitors | 31.7 ± 3.4 µM | 83 ± 12 µM | 15.1 | Oc1ccccc1/C=N/n1c(S)nnc1-c1ccccc1 [Compound 31] | 
 |  | 2.8 ± 0.5 µM | 3.8 ± 0.6 µM | 17,5 | Cc1cccc(-c2nnc(S)n2/N=C/c2ccc(O)c(O)c2)c1 [Compound 43] | Ki (human DDC [1]; [6]): 1.9 ± 0.1 µM
 |  | 6.1 ± 0.5 µM | 30.1 ± 2.1 µM | 15,4 | Cc1ccccc1-c1nnc(S)n1/N=C/c1ccc(O)c(O)c1 [Compound 41] | Ki (human DDC [1]; [6]): 9.8 ± 0.5 µM
14 ± 1 µM | competitive inhibitors | 21.1 ± 3.5 µM | 17 ± 1 µM | 14.7 | Oc1cccc(/C=N/n2c(S)nnc2-c2ccccc2Cl)c1 [Compound 28] | 
24.8 ± 1.2 µM | mixed mode |  |  |  | Oc1ccc(C=Nn2c(S)nnc2-c2ccccc2)c(O)c1 [Compound 27] | Ki′ (human DDC [1]; [4]): 43.1 ± 1.9 µM
 |  | 2.7 ± 0.5 µM | 5.2 ± 0.4 µM | 17,5 | Cc1ccc(-c2nnc(S)n2/N=C/c2ccc(O)c(O)c2)cc1 [Compound 42] | Ki (human DDC [1]; [6]): 2 ± 0.2 µM
16.5 ± 0.8 µM | mixed mode |  |  |  | Oc1ccccc1/C=N/n1c(S)nnc1-c1ccc(F)cc1 [Compound 33] | Ki′ (human DDC [1]; [4]): 325 ± 39 µM
 |  |  | 3.5 ± 0.3 µM | 17,4 | Oc1ccc(/C=N/n2c(S)nnc2COc2ccccc2)cc1O [Compound 46] | Ki (human DDC [1]; [8]): 1.1 ± 0.1 µM
 |  | 24.5 ± 4.4 µM | 76 ± 5.8 µM | 22,6 | Oc1ccc(/C=N/n2cnnc2)cc1O [Compound 38] | Ki (human DDC [1]; [6]): 24.5 ± 1.4 µM
 |  |  | 1.7 ± 0.2 µM | 18,4 | COc1ccc(-c2nnc(S)n2/N=C/c2ccc(O)c(O)c2)cc1 [Compound 44] | Ki (human DDC [1]; [6]): 0.5 ± 0.1 µM
12.2 ± 0.4 µM | competitive inhibitors | 25.1 ± 3.5 µM | 29.8 ± 4.8 µM | 12.9 | Oc1ccc(/C=N/n2c(S)nnc2-c2ccc(Cl)cc2Cl)cc1O [Compound 30] | 
 | noncompetitive inhibitors |  | 29 ± 2 µM |  | Oc1ccc(/C=N/n2c(S)nnc2-c2ccc(Cl)cc2Cl)c(O)c1 [Compound 35] | Ki′ (human DDC [1]; [4]): 127±16^b µM
 |  |  | 3.5 ± 0.2 µM | 19,4 | Oc1ccc(/C=N/n2c(S)nnc2-c2ccco2)cc1O [Compound 40] | Ki (human DDC [1]; [6]): 1.4 ± 0.1 µM
 |  | 9.1 ± 0.3 µM | 27.5 ± 3.3 µM | 19,9 | Cc1nnc(S)n1/N=C/c1ccc(O)c(O)c1 [Compound 39] | Ki (human DDC [1]; [8]): 10.8 ± 0.8 µM
10.4 ± 3.3 µM | competitive inhibitors | 7.1 ± 0.9 µM | 11 ± 0.8 µM | 15.8 | Oc1ccc(/C=N/n2c(S)nnc2-c2ccc(F)cc2)cc1O [Compound 34] | 
 |  |  | > 200 µM |  | COc1ccccc1-c1nnc(S)n1/N=C/c1ccc(O)c(O)c1 [Compound 47] | Inhibition of DDC activity (human DDC [1]; at 200 µM (the concentration of its maximum solubility)): does not inhibit DDC activity

More lines, now with the values behind:

Compound | Ki (human DDC [1]; [3]) | Inhibition profile (human DDC [1]) | Kd (human DDC [2]) | IC50 (human DDC [1]; [5]) | BE (binding efficiency) (human DDC [1]) | further results
O=C(Nc1ccccc1)c1ccccc1NS(=O)(=O)c1ccc2[nH]c(=O)[nH]c2c1 [Compound 17] | 4.4 ± 1.4 µM | competitive inhibitors | 17.5 ± 5.1 µM | 16.8 ± 1.7 µM | 13.1 | increase of affinity (human DDC [1]; compared with compound 5): about 13 fold
Cc1cccc(NC(=O)COC(=O)c2[nH]c(=O)[nH]c(=O)c2N)c1C [Compound 8] |  |  |  |  |  | Inhibition of DDC activity (human DDC [1]; [7]): do not inhibit DDC activity
Oc1ccc(/C=N/n2c(S)nnc2-c2ccc(Cl)cc2)cc1O [Compound 21] | 2.3 ± 0.4 µM | competitive inhibitors | 2.5 ± 0.7 µM | 6.3 ± 0.9 µM | 16.3 | 
O=C1C(=Cc2ccc(O)c(O)c2)C(=O)c2ccccc21 [Compound 10] | 6.03 ± 0.55 µM | mixed inhibition |  | 12.8 ± 0.4 µM |  | Inhibition of DDC activity (human DDC [1]; [7]): ≥ 70%; Ki′ (human DDC [1]; [4]): 23.1 ± 1.1 µM
Oc1cccc(/C=N/n2c(S)nnc2-c2ccc(Cl)cc2)c1 [Compound 24] | 120 ± 14 µM | competitive inhibitors |  | 77.1 ± 2.4 µM | 11.9 | 
O=C(O)c1cccc(NS(=O)(=O)c2ccc3nnn(O)c3c2)c1 [Compound 1] | 106 ± 7 µM | competitive inhibition | 240 ± 68 µM | 570 ± 66 µM | 11.9 | Inhibition of DDC activity (human DDC [1]; [7]): ≥ 70%
Oc1ccc(/C=N/n2c(S)nnc2-c2ccc(Cl)cc2Cl)cc1 [Compound 18] | 63.2 ± 3.1 µM | competitive inhibitors |  |  | 11.5 | 
Oc1cccc(/C=N/n2c(S)nnc2-c2ccccc2)c1O [Compound 23] | < 10 µM | competitive inhibitors | 4.7 ± 0.5 µM |  | 16.8 | IC50 (human DDC [1]; 50 nM enzyme, 10 µM PLP): 16.6 ± 0.3 µM; Ki (human DDC [1]; Ki, 50 nM enzyme, L-Dopa, 10 µM PLP, 0.1 M potassium phosphate pH 7.4, 25°C, from Lineweaver–Burk plots): 5.7 ± 0.1 µM
Oc1cccc(/C=N/n2c(S)nnc2-c2ccc(Cl)cc2Cl)c1O [Compound 11] | 10.7 ± 2.4 µM | competitive inhibition | 16.1 ± 2.1 µM | 27.3 ± 1.6 µM | 13.0 | Inhibition of DDC activity (human DDC [1]; [7]): ≥ 70%
Oc1ccc(/C=N/n2c(S)nnc2-c2ccccc2)c(O)c1O [Compound 22] | 15.1 ± 0.1 µM | mixed mode |  | 6.7 ± 0.9 µM |  | Ki′ (human DDC [1]; [4]): 46.7 ± 0.5 µM
O=C(O)c1ccccc1NS(=O)(=O)c1ccc2[nH]c(=O)[nH]c2c1 [Compound 16] | 59.8 ± 0.3 µM | competitive inhibitors |  |  | 12.7 | 
O=S(=O)(c1ccc2nnn(O)c2c1)N1CCCCC1 [Compound 2] | 390 ± 30 µM | competitive inhibition | 516 ± 126 µM | 1500 ± 220 µM | 12.1 | Inhibition of DDC activity (human DDC [1]; [7]): ≥ 70%
Nc1c(S(=O)(=O)c2ccccc2)c2nc3ccccc3nc2n1/N=C/c1ccc(O)c(O)c1 [Compound 12] |  | noncompetitive inhibition |  |  |  | Inhibition of DDC activity (human DDC [1]; [7]): ~55%; Ki′ (human DDC [1]; [4]): 19.4±1.4^b µM
O=C1Nc2ccc(S(=O)(=O)N3CCCCC3)c3cccc1c23 [Compound 15] |  |  |  |  |  | Inhibition of DDC activity (human DDC [1]; [7]): do not inhibit DDC activity
Oc1ccc(C=Nn2c(S)nnc2-c2ccc(Cl)cc2)c(O)c1 [Compound 26] |  | noncompetitive inhibitors; also recorded: Nonconmpetitive |  |  | 12.1 | Ki′ (human DDC [1]; [4]): 65.2±−4.1^b µM
Oc1cccc(/C=N/n2c(S)nnc2-c2ccc(Cl)cc2Cl)c1 [Compound 20] | 36.8 ± 4.2 µM | competitive inhibitors | 28.2 ± 3.2 µM |  | 12.1 | 
CC(C)C(NC(=O)Cc1n[nH]c(=O)c2ccccc12)c1nc2ccccc2[nH]1 (stereo not drawn) [Compound 13] |  |  |  |  |  | Inhibition of DDC activity (human DDC [1]; [7]): do not inhibit DDC activity
CCOc1cc(-c2ccc(O)c(O)c2)cc(=O)c2c(C)oc(C)c12 [Compound 6] |  |  |  |  |  | Inhibition of DDC activity (human DDC [1]; [7]): do not inhibit DDC activity
Oc1ccccc1/C=N/n1c(S)nnc1-c1ccc(Cl)cc1Cl [Compound 19] |  |  |  |  |  | DDC inhibitory activity in words (human DDC [1]; structure-activity discussion): poorly active
